US20080214537A1, “BRIDGED PHENANTHRIDINES” (CARA THERAPEUTICS, INC., priority 2007, published 2008)
pEC50: −log10 of the molar value.

Key:
[1] = biological target: human CB2 receptor (hCB2) (Homo sapiens, UniProt P34972); test: cAMP assay (LANCE TR-FRET) in CHO-K1 cells expressing hCB2; type: cell-based; settings: for Emax: CHO-K1, intrinsic activity: percent maximal activation compared to full activation by CP55,940 (1 μM = 100%), read-out: hCB2 % Max Range; for pEC50: CHO-K1 cells stably expressing hCB2, intracellular cAMP, NKH-477 prestimulated, average of at least three replicates
human CB2 receptor (hCB2), sequence (P34972 whole entry): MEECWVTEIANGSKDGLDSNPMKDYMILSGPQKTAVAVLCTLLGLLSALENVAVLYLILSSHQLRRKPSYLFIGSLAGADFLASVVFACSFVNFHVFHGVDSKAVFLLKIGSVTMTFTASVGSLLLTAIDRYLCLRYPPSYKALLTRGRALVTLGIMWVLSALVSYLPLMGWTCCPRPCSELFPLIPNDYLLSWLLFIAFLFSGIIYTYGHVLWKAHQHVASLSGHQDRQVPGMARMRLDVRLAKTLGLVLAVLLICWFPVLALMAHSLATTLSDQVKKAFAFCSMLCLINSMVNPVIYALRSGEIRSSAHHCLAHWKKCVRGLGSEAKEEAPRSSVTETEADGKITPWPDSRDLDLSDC
Protocol: (§1) The ability of compounds to act as agonists or inverse agonists at human CB2 and CB1 receptors (hCB2, hCB1, respectively) was determined by measuring changes in intracellular cAMP levels. Chinese Hamster Ovary (CHO-K1) cell lines stably expressing hCB2 (Genebank: X74328) or hCB1 (Genebank: X54937) were purchased from Euroscreen (Gosselies, Belgium).
(§2) Cell lines were grown in suspension in EX-CELL 302 CHO Serum-free medium (Sigma, catalog #14324C) supplemented with 1% Fetal Bovine Serum, glutamine and with or without non-essential amino-acids under 0.4 mg/mL G418 selection.
(§3) Receptor mediated responses were determined by measuring changes in intracellular cAMP using LANCE cAMP detection kit (catalog #AD0264, PerkinElmer, Wellesley, Mass.) based on time-resolved fluorescence resonance energy transfer (TR-FRET). Changes in cAMP were determined in cells pre-incubated with IBMX (isobutyl methylxanthine) and prestimulated with NKH-477 (a water soluble forskolin derivative, catalog #1603, Tocris, Ellisville, Mo.) to increase basal cAMP levels as detailed below.
(§4) On the day of the experiment, cells were spun at low speed for 5 min at room temperature. The supernatant was removed and cells were resuspended in stimulation buffer (Hanks Buffered Salt Solution/5 mM HEPES, containing 0.5 mM IBMX (catalog #17018, Sigma) and 0.02% BSA (PerkinElmer, catalog #CR84-100)). Cell clumps were removed by filtering through cell strainer 40 μm (BD Falcon, Discovery Labware, Bedford, Mass.) and diluted to 2×10^5 cells/mL. Antibody supplied with the LANCE cAMP immunoassay kit was then added according to the manufacturer's instructions. An aliquot of cells was taken for un-induced controls. To the remaining cells was added NKH-477 (a water soluble forskolin derivative, Tocris catalog #1603) to a final concentration of 2-8 μM. Cells were then incubated for either 25 or 30 min at room temperature prior to adding to Proxiplates containing test compounds (final DMSO concentration was less than 0.5%) with a Multidrop bulk dispenser, followed by a sixty minute incubation at room temperature. The response was stopped by addition of the detection mix supplied with the LANCE kit.
(§5) The reagents were allowed to equilibrate for three hours prior to reading on an Envision multi-mode detector (PerkinElmer). TR-FRET was measured using a 330-380 nm excitation filter, 615 and 665 nm emission filters, dichroic mirror 380 nm and Z=1 mm.
(§6) Cyclic AMP concentrations in each well were back-calculated from a cAMP standard curve run concurrently during each assay. Each plate contained 16 wells of forskolin stimulated cells and 16 wells of forskolin plus CP55,940-treated. CP55,940-treated cells were treated with CP55,940 (Tocris catalog #0949) at 1 μM and the maximal response was used as the full range (100%) standard. WIN55,212 (Tocris catalog #1038) was used as an internal standard. Concentrations of cAMP were expressed as a percent of the difference of these two groups of wells. Concentration-response data including EC50 (the concentration of compound producing 50% of the maximal response) and intrinsic activity (the percent maximal activation compared to full activation by CP55,940) were determined using a four-parameter non-linear regression algorithm (Xlfit equation 251, IDBS). Assays were performed with at least three replicates per compound and averaged results for the several compounds of the invention are shown in Table I.

[2] = biological target: human CB1 receptor (hCB1) (Homo sapiens, UniProt P21554); test: cAMP assay (LANCE TR-FRET) in CHO-K1 cells expressing hCB1; type: cell-based; settings: activity on hCB1 represents inverse agonism; for Emax: CHO-K1, percent of range defined by CP55,940 (1 μM = 100%), read-out: hCB1 % Max Range; for pEC50: CHO-K1 cells stably expressing hCB1, intracellular cAMP, NKH-477 prestimulated
human CB1 receptor (hCB1), sequence (P21554 whole entry): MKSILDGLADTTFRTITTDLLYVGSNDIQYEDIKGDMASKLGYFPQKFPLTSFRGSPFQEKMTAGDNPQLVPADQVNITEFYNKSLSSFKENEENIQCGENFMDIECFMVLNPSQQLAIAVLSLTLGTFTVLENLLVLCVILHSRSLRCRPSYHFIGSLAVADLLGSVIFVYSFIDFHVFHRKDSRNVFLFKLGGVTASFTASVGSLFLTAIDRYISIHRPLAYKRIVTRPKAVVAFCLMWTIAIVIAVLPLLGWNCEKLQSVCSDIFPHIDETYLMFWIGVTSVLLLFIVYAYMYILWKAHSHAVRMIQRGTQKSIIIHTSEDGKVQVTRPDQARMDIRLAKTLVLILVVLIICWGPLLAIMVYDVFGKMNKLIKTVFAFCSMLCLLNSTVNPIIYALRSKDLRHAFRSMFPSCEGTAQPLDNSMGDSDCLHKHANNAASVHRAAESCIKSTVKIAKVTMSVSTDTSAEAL
Protocol: as §1, §2, §3, §4, §5
as §6, with “IDBS).” for “IDBS). Assays were performed with at least three replicates per compound and averaged results for the several compounds of the invention are shown in Table I.”

With O=C(Nc1ccc2c(c1)C1C3CCC(C3)C1C(c1c(Cl)cccc1Cl)N2)C1CC1 (stereo not drawn) [(20), Bridged N-(6-(2,6-dichlorophenyl)-5,6,6a,7,8,9,10,10a-octahydrophenanthridin-2-yl)cyclopropanecarboxamide] the Emax [1] was less than 40%, the pEC50 [1] was less than 5.00 and the Emax [2] was less than 40%. The pEC50 [2] was less than 5.00.

In the case of O=S(=O)(c1ccc2c(c1)C1CC=CC1C(c1ccccc1)N2)N1CCCCC1 (stereo not drawn) [(48), 4-phenyl-8-(piperidin-1-ylsulfonyl)-3a,4,5,9b-tetrahydro-1H-cyclopenta[c]quinoline], the Emax [1] was 82.3%, the pEC50 [1] was 7.13 and the Emax [2] was less than 40%. For the same compound, the pEC50 [2] was less than 5.00.

With COCCC(=O)Nc1ccc2c(c1)C1C3CCC(C3)C1C(c1ccccc1)N2 (stereo not drawn) [(12), Bridged 3-methoxy-N-(6-phenyl-5,6,6a,7,8,9,10,10a-octahydrophenanthridin-2-yl)propanamide] the Emax [1] was 82%, the pEC50 [1] was 7.91 and the Emax [2] was less than 40%. For the same compound, the pEC50 [2] was less than 5.00.

Compound CN(C)S(=O)(=O)c1ccc2c(c1)C1C3CCC(C3)C1C(c1ccccc1)N2 (stereo not drawn) [(11), Bridged N,N-dimethyl-6-phenyl-5,6,6a,7,8,9,10,10a-octahydrophenanthridine-2-sulfonamide] has an Emax [1] of 99%, a pEC50 [1] of 9.01 and an Emax [2] of less than 40%. It also gave a pEC50 [2] of less than 5.00.

CCCNC(=O)Nc1ccc2c(c1)C1C3CCC(C3)C1C(c1ccc(C)cc1)N2 (stereo not drawn) [(7), Bridged 1-propyl-3-(6-p-tolyl-5,6,6a,7,8,9,10,10a-octahydrophenanthridin-2-yl)urea] was tested, and the Emax [1] was less than 40%, the pEC50 [1] was less than 5.00 and the Emax [2] was less than 40%. It also gave a pEC50 [2] of less than 5.00.

Work on Cc1ccc(C2Nc3ccc(N4CCOCC4)cc3C3C4CCC(C4)C23)cc1 (stereo not drawn) [(18), Bridged 4-(6-p-tolyl-5,6,6a,7,8,9,10,10a-octahydrophenanthridin-2-yl)morpholine] yielded an Emax [1] of less than 40%, a pEC50 [1] of less than 5.00 and an Emax [2] of less than 40%. For the same compound, the pEC50 [2] was less than 5.00.

With Cc1ccc(C2Nc3ccc(S(=O)(=O)N4CCCCC4)cc3C3C4CCC(C4)C23)cc1 (stereo not drawn) [(10), Bridged 2-(piperidin-1-ylsulfonyl)-6-p-tolyl-5,6,6a,7,8,9,10,10a-octahydrophenanthridine] the Emax [1] was 98%, the pEC50 [1] was 7.68 and the Emax [2] was less than 40%. It also gave a pEC50 [2] of less than 5.00.

For c1ccc(C2Nc3ccc(N4CCOCC4)cc3C3C4CCC(C4)C23)cc1 (stereo not drawn) [(17), Bridged 4-(6-phenyl-5,6,6a,7,8,9,10,10a-octahydrophenanthridin-2-yl)morpholine], the Emax [1] was 94%, the pEC50 [1] was 6.85 and the Emax [2] was less than 40%. It also gave a pEC50 [2] of less than 5.00.

Compound O=C(Nc1ccc2c(c1)C1C3CCC(C3)C1C(c1ccccc1)N2)c1cocn1 (stereo not drawn) [(13), Bridged N-(6-phenyl-5,6,6a,7,8,9,10,10a-octahydrophenanthridin-2-yl)oxazole-4-carboxamide] has an Emax [1] of 57%, a pEC50 [1] of 6.17 and an Emax [2] of less than 40%. For the same compound, the pEC50 [2] was less than 5.00.

Work on Cn1nccc1C1Nc2ccc(S(=O)(=O)N3CCCC3)cc2C2C3CCC(C3)C12 (stereo not drawn) [(42), Bridged 6-(1-methyl-1H-pyrazol-5-yl)-2-(pyrrolidin-1-ylsulfonyl)-5,6,6a,7,8,9,10,10a-octahydrophenanthridine] yielded an Emax [1] of 100%, a pEC50 [1] of 9.04 and an Emax [2] of less than 40%. The pEC50 [2] was less than 5.00.

In the case of Cc1ccc(C2Nc3ccc(NC(=O)C4CC4)cc3C3C4CCC(C4)C23)cc1 (stereo not drawn) [(22), Bridged N-(6-p-tolyl-5,6,6a,7,8,9,10,10a-octahydrophenanthridin-2-yl)cyclopropanecarboxamide], the Emax [1] was 53%, the pEC50 [1] was 7.85 and the Emax [2] was 115%. For the same compound, the pEC50 [2] was 5.74.

CS(=O)(=O)N(c1ccc2c(c1)C1C3CCC(C3)C1C(c1ccccc1)N2)S(C)(=O)=O (stereo not drawn) [(52), Bridged N-(methylsulfonyl)-N-(6-phenyl-5,6,6a,7,8,9,10,10a-octahydrophenanthridin-2-yl)methanesulfonamide] showed an Emax [1] of 102%, a pEC50 [1] of 9.20 and an Emax [2] of less than 40%. It also gave a pEC50 [2] of less than 5.00.
